Data on 1 compound can be found in ChEMBL document CHEMBL1144137, “Limonoids from Swietenia macrophylla and S. aubrevilleana” (1999).

The test has as its system Spodoptera frugiperda. Nature of the test: Antifeedant activity against final instar larvae of Spodoptera frugiperda assessed as antifeedant index at 1000 ppm. The format is functional.

Consider `C/C=C(\C)C(=O)O[C@@H]1[C@H]2C(=O)[C@](C)([C@H]3CC[C@]4(C)[C@@H](CC(=O)O[C@H]4c4ccco4)[C@]34O[C@H]24)[C@@H]([C@@H](OC(C)=O)C(=O)OC)C1(C)C` [swietemahonin F], for which the Activity is listed as 70.2%.
